What all share (test): DTP human tumour cell line panel, 48 h
The subject of experiment [1] is OVCAR-4 ovarian.
The subject of experiment [2] is SNB-19 CNS.
Experiment [3] deals with SNB-75 CNS.
The subject of experiment [4] is IGROV1 ovarian.
Experiment [5] has as its system SK-OV-3 ovarian.
In experiment [6] the test system is HCC-2998 colon.
In experiment [7] the test system is NCI-H226 lung.
Experiment [8] deals with HOP-62 NSCLC.
The subject of experiment [9] is SF-268 CNS.

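Values below derive from 48-hour exposures of cells grown in 96-well plates, with endpoints linearly interpolated between the two concentrations bracketing the appropriate inhibition level. TGI: total growth inhibition.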

In general, TGI refers to the concentration giving total growth inhibition. Turning to `CCN(CC)CCCNC(=O)c1ccc([N+](=O)[O-])cc1O`, the TGI in experiment [1], in [2], in [3], in experiment [4], in experiment [5] and in experiment [6] was more than 100 µM throughout. The TGI in experiment [7], in [8] and in [9] was more than 100 µM each time.
`C=Cc1ccc(C)[n+](C[Si](C)(C)O[Si](C)(C)C[n+]2cc(C=C)ccc2C)c1`: the concentration for total growth inhibition (TGI) in experiment [1], in [2], in experiment [3], in [4], in [5] and in [6] was more than 100 µM each time. Besides, the TGI in experiment [7], in experiment [8] and in experiment [9] was more than 100 µM each time.
As for `N#CC1=C(c2ccccc2)NNC(c2ccc(Cl)cc2)CC1=O` (stereo not given), the TGI in experiment [1] is more than 100 µM; in experiment [2], more than 100 µM; in experiment [3], 41.7 µM; in experiment [5] it was more than 100 µM; in [6], more than 100 µM; in [7], 8.26 µM. The TGI was 73.8 µM in [8] and more than 100 µM in experiment [9].
In the case of `Cn1ccnc1C(O)(c1nccn1C)c1nccn1C`, the TGI in experiment [1], in [2], in experiment [3], in experiment [6], in experiment [7] and in [8] was more than 100 µM throughout. The total growth inhibition concentration (TGI) in experiment [9] is more than 100 µM.
`O=C1NCCS(=O)(=O)N[C@@H](CC2=CC=CCC2)C(=O)N2CCCC12` (stereo not given in full): the TGI in experiment [1], in experiment [2], in experiment [3], in [4], in [5] and in experiment [6] was more than 100 µM in each case. Moreover, the TGI in experiment [7], in [8] and in [9] was more than 100 µM throughout.
Regarding `CC1CN=C(N(C(=O)Nc2ccc(F)c(Cl)c2)c2ccccc2)S1` (stereo not given), the total growth inhibition concentration (TGI) is more than 100 µM in experiment [1]; more than 100 µM in experiment [2]; 63.7 µM in experiment [3]; more than 100 µM in experiment [4]; 98.7 µM in experiment [5]; 61.6 µM in experiment [8]. For the same compound, the TGI in experiment [9] is more than 100 µM.
For the compound `COC(=O)c1cc2c(cc1CC1Cc3cc4c(cc3C1)CCC4)CCC2`, the TGI was more than 100 µM in experiment [1]; more than 100 µM in experiment [2]; more than 100 µM in experiment [3]; more than 100 µM in experiment [4]; more than 100 µM in [5]; 70 µM in [6]. In addition, the TGI in experiment [7], in experiment [8] and in [9] was more than 100 µM throughout.
Turning to `O=C(CN(c1ccccc1)c1ccccc1)N1c2ccccc2C2C=CC=CC21` (stereo not given), the total growth inhibition concentration (TGI) is more than 100 µM in experiment [1]; 38.1 µM in experiment [2]; 52.3 µM in experiment [3]; 47.3 µM in [4]; more than 56.4 µM in [5]; 22.7 µM in experiment [6]. For the same compound, the TGI in experiment [7] is 44.6 µM; in experiment [8], 41.5 µM; in experiment [9], more than 57 µM.
Regarding `O=C1Sc2ccccc2C(=O)N2CSCC12` (stereo not given), the concentration for total growth inhibition (TGI) in experiment [2], in experiment [3], in experiment [4], in experiment [5], in [6] and in experiment [7] was more than 100 µM throughout. Also, the total growth inhibition concentration (TGI) in [8] and in experiment [9] was more than 100 µM throughout.
With `Cc1cn([C@@H]2C[C@H](CO)[C@@H](O)C2)c(=O)[nH]c1=O`, the total growth inhibition concentration (TGI) in experiment [1], in experiment [2], in experiment [3], in experiment [4], in experiment [5] and in experiment [6] was more than 100 µM in each case. Moreover, the concentration for total growth inhibition (TGI) in experiment [7], in [8] and in experiment [9] was more than 100 µM throughout.
Consider `O=C(NC(COC(=O)C(Cc1ccccc1)NC(=O)c1ccccc1)Cc1ccccc1)c1ccccc1` (stereo not given), for which the TGI in experiment [1], in [2], in [3], in [4], in experiment [5] and in experiment [6] was more than 50 µM throughout. Moreover, the TGI in [8] and in experiment [9] was more than 50 µM in each case.
In the case of `CSC(=Nc1ccccc1)N(c1ccccc1)c1nc(=[N+](C)C)ss1`, the TGI was 21.5 µM in experiment [1]; 15.4 µM in [2]; 16.3 µM in experiment [3]; 12.8 µM in [4]; 38.5 µM in experiment [5]; 20.7 µM in experiment [6]. In addition, the figures for the TGI in experiment [8] and in experiment [9] were 27.2 µM and 21.6 µM, respectively.
Take `COc1ccc(-c2oc(/C=N/NC(N)=S)c([N+](=O)[O-])c2-c2ccc(OC)c(OC)c2)cc1OC`: the TGI was 61.6 µM in [1]; 97 µM in [2]; 72.3 µM in experiment [3]; more than 100 µM in [4]; 69.3 µM in experiment [5]; 62.4 µM in [7]. Also, the concentration for total growth inhibition (TGI) in experiment [8] was more than 100 µM; in experiment [9] it was 58 µM.
For the compound `COc1ccc(CC2c3c(cc(OC)c(OC)c3OC)CCN2C)cc1OC` (stereo not given), the total growth inhibition concentration (TGI) in experiment [1], in [2], in experiment [3], in experiment [6], in experiment [8] and in experiment [9] was more than 100 µM each time.
Consider `Cc1ccc(CC[P+](=O)CCc2ccc(C)nc2)cn1`, for which the concentration for total growth inhibition (TGI) in [1], in [2], in experiment [4], in experiment [5], in [6] and in experiment [7] was more than 100 µM throughout. Further, the TGI in [8] and in [9] was more than 100 µM each time.
On to `C=C1c2cc3c(cc2CC12Cc1cc4c(cc1C2=O)CCC4)CCC3` (stereo not given), for which the total growth inhibition concentration (TGI) in experiment [1], in [2], in experiment [3], in experiment [4], in experiment [5] and in experiment [6] was more than 100 µM in each case. Further, the TGI in experiment [8] and in experiment [9] was more than 100 µM in each case.
Turning to `Nc1nc(N)c(N=O)c(Nc2ccc(Br)cc2)n1`, the TGI in experiment [1] was more than 100 µM; in experiment [2] it was more than 100 µM; in experiment [3] it was 40.3 µM; in [4], 39.4 µM; in experiment [5], more than 100 µM; in experiment [6], more than 100 µM. For the same compound, the TGI in [7] worked out at 92.7 µM; in experiment [8], 63.9 µM; in [9], 57.1 µM.
As for `CC(=O)OCC1OC(n2cc(I)c(=O)[nH]c2=O)C(OC(C)=O)C(OC(C)=O)C1OC(C)=O` (stereo not given), the TGI in [1], in experiment [2], in experiment [3], in [4], in experiment [5] and in experiment [6] was more than 100 µM in each case. In addition, the TGI in [7], in experiment [8] and in experiment [9] was more than 100 µM throughout.
In the case of `O=C(O)c1cc(-c2ccc3c(O)c(O)ccc3c2)ccc1O`, the concentration for total growth inhibition (TGI) in experiment [1] is 27 µM; in experiment [2] it was more than 75 µM; in experiment [3], more than 75 µM; in experiment [4] it was more than 75 µM; in experiment [5], more than 75 µM; in [6], more than 75 µM. Also, the total growth inhibition concentration (TGI) in experiment [7], in experiment [8] and in experiment [9] was more than 75 µM throughout.
Regarding `CCN1CCCC(NCc2c3ccccc3c(CNC3CCCN(CC)C3)c3ccccc23)C1` (stereo not given), the TGI is 18 µM in experiment [1]; 65.8 µM in [2]; 25 µM in [3]; 55.7 µM in [4]; 36.7 µM in experiment [5]; 27.9 µM in experiment [6]. Moreover, the results for the total growth inhibition concentration (TGI) in [7], in experiment [8] and in [9] were 30 µM, more than 63.4 µM and 38.4 µM, respectively.
On to `CC12CCC3C(CCC4CC(OC(=O)Cc5ccc(N(CCCl)CCCl)cc5)CCC43C)C1CCC(=O)N2` (stereo not given), for which the concentration for total growth inhibition (TGI) in [1] was 29.3 µM; in [2] it was 32.5 µM; in [3], 28.9 µM; in [4], 31 µM; in [5] it was 32.5 µM; in experiment [6] it was 41.6 µM. The TGI in experiment [7] was 30.1 µM; in [9], 31.1 µM.
For the compound `COc1c(O)c2c3c(c(C)cc(O)c3c1O)C(=O)C(O)(C(C)(C)C(C)=O)C2=O` (stereo not given), the total growth inhibition concentration (TGI) in experiment [1] was more than 100 µM; in experiment [2], more than 100 µM; in experiment [3], more than 100 µM; in experiment [4] it was more than 100 µM; in [5] it was more than 100 µM; in experiment [7], 34.6 µM. The TGI in experiment [8] and in experiment [9] was more than 100 µM in each case.
As to `C[C@@H](Cl)[C@H]1CCCN(Cc2ccc(Br)cc2)C1`, the TGI in [1], in [2], in experiment [3], in experiment [4], in experiment [5] and in experiment [6] was more than 12.5 µM throughout. Moreover, the total growth inhibition concentration (TGI) in experiment [7], in [8] and in experiment [9] was more than 12.5 µM throughout.
`c1ccc2c(c1)c1c(n2CCOCCN2CCOCC2)CCCC1`: the TGI is 86.8 µM in experiment [1]; more than 100 µM in [2]; 70.2 µM in experiment [3]; more than 100 µM in experiment [4]; more than 100 µM in experiment [5]; more than 100 µM in experiment [8]. Also, in [9], the TGI was more than 100 µM.
Regarding `CCOC(CNCCC(=O)OC)OCC`, the concentration for total growth inhibition (TGI) in experiment [1], in experiment [2], in experiment [3], in [4], in experiment [5] and in experiment [6] was more than 10 µM in each case. Further, the TGI in experiment [7], in experiment [8] and in experiment [9] was more than 10 µM each time.
Take `NNC1=N/C(=C\c2ccco2)C(Cl)=N1`: the total growth inhibition concentration (TGI) in [1] was 75.8 µM; in experiment [2], more than 100 µM; in [3], more than 100 µM; in [4], more than 100 µM; in [5], more than 100 µM; in [6] it was more than 100 µM. In addition, the total growth inhibition concentration (TGI) in experiment [7], in experiment [8] and in experiment [9] was more than 100 µM in each case.
On to `CCOC(=O)C1(C(=O)OCC)COS(=O)OC1`, for which the TGI in experiment [1] is 42.6 µM; in experiment [2] it was more than 100 µM; in [3], more than 100 µM; in experiment [5], more than 100 µM; in experiment [6] it was more than 100 µM; in experiment [7] it was 40.6 µM.
In the case of `CC(O)CCCOC(c1ccccc1)(c1ccccc1)c1ccccc1` (stereo not given), the TGI was 28.1 µM in [1]; 29.6 µM in [2]; 25.8 µM in experiment [3]; 29.9 µM in experiment [4]; 30.8 µM in experiment [5]; 29.1 µM in [6]. The total growth inhibition concentration (TGI) in [7] was 30.2 µM; in experiment [8] it was 31.4 µM; in [9] it was 29.8 µM.
With `CCC1=CC2CN3Cn4c(c(COCc5c6n(c7ccccc57)CN5CC7C=C(CC)C5C6(C(=O)OC)C7)c5ccccc54)C(C(=O)OC)(C2)C13`, the TGI in [1], in experiment [2], in experiment [4], in experiment [5], in [7] and in [8] was more than 100 µM in each case. This compound also gave a total growth inhibition concentration (TGI) in experiment [9] of more than 100 µM.
On to `O=[N+]([O-])c1ccc(/C=C/c2cc(-c3ccccc3)nc3ccc4ccccc4c23)cc1`, for which the TGI in [1], in experiment [2], in [3], in [4], in experiment [5] and in [6] was more than 100 µM each time. Further, the TGI in experiment [7], in experiment [8] and in [9] was more than 100 µM each time.
As for `CC1=NN(C(=O)CC(=O)Nc2ccccc2F)C(=O)C1N=Nc1ccccc1[N+](=O)[O-]` (stereo not given), the TGI in experiment [1], in experiment [2], in experiment [3], in [4], in experiment [5] and in [7] was more than 100 µM in each case. For the same compound, the TGI in experiment [8] and in experiment [9] was more than 100 µM in each case.

The values are drawn from PubChem BioAssay (NCI).
